Among the data in ChEMBL document CHEMBL5291721, “A preclinical secondary pharmacology resource illuminates target-adverse drug reaction associations of marketed drugs” (Nat Commun, 2023) are AC50 values, retold here.

Each structure is given as a SMILES string.

The target in test [1] is T1, Mu-type opioid receptor (Homo sapiens, UniProt P35372).
The target of test [2] is Glutamate receptor ionotropic, NMDA 1 (Rattus norvegicus, UniProt P35439).
Test [3] has as its target Histamine H3 receptor (Homo sapiens, UniProt Q9Y5N1).
Test [4] concerns the target T2, Alpha-2A adrenergic receptor (Homo sapiens, UniProt P08913).
T2 sequence (P08913 whole entry): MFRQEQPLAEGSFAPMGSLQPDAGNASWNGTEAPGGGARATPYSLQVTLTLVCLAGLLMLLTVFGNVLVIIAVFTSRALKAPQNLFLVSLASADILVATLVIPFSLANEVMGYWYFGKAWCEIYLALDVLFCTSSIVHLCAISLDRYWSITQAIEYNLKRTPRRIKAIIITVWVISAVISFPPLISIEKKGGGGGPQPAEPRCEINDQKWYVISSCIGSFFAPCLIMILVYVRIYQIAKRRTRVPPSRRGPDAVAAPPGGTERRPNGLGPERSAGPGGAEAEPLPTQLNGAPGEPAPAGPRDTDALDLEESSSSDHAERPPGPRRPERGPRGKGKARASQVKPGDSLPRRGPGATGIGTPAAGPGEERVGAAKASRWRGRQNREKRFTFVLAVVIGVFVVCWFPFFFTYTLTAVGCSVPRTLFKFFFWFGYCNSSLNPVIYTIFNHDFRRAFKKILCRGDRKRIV
The test is classed as functional, cell-based.

Test [5] deals with 5-hydroxytryptamine receptor 2B (Homo sapiens, UniProt P41595). The test is classed as functional, cell-based.
The target in test [6] is Melanocortin receptor 4 (Homo sapiens, UniProt P32245).
Test [7] addresses Neuronal acetylcholine receptor subunit alpha-4 (Homo sapiens, UniProt P43681).
Test [8] concerns the target T3, Type-1 angiotensin II receptor (Homo sapiens, UniProt P30556).
T3 sequence (P30556 whole entry): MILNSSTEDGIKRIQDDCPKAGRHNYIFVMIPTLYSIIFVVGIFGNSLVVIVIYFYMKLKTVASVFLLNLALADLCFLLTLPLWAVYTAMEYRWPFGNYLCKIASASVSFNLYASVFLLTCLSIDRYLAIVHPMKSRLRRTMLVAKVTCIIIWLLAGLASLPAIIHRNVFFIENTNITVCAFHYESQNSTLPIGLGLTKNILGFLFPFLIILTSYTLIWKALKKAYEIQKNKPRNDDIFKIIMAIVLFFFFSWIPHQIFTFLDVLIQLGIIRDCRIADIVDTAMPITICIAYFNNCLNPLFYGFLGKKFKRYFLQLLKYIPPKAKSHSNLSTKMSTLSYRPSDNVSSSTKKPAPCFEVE

The target in test [9] is T4, Neuropeptide Y receptor type 1 (Homo sapiens, UniProt P25929).
T4 sequence (P25929 whole entry): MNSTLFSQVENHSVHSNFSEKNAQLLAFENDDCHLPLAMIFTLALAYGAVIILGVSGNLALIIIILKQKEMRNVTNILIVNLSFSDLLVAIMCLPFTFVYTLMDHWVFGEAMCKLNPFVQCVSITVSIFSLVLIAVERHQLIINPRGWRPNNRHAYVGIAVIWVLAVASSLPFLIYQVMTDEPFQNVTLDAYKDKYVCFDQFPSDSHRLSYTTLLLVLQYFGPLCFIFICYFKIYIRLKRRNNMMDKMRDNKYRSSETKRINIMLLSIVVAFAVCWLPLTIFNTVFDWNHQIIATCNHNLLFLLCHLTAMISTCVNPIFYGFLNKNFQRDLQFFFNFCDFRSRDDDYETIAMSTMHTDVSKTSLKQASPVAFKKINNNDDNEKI

In test [10] the target is T2, Alpha-2A adrenergic receptor. Format: functional, cell-based. The source holds these as a separate data set.
The target in test [11] is Kappa-type opioid receptor (Homo sapiens, UniProt P41145).
Test [12] deals with Bile salt export pump (Homo sapiens, UniProt O95342). Format: functional.
Test [13] has as its target Beta-1 adrenergic receptor (Homo sapiens, UniProt P08588). The test is classed as functional.
Test [14] has as its target Motilin receptor (Homo sapiens, UniProt O43193).
Test [15] concerns the target Cannabinoid receptor 1 (Homo sapiens, UniProt P21554).
The target in test [16] is T5, Sodium-dependent serotonin transporter (Homo sapiens, UniProt P31645).
Test [17] has as its target Histamine H1 receptor (Homo sapiens, UniProt P35367).
The target in test [18] is Prothrombin (Homo sapiens, UniProt P00734). Format: functional.
Test [19] deals with Prostaglandin G/H synthase 1 (Homo sapiens, UniProt P23219). Format: functional.
Test [20] has as its target cGMP-inhibited 3',5'-cyclic phosphodiesterase 3A (Homo sapiens, UniProt Q14432). The test is classed as functional.
The target of test [21] is 3',5'-cyclic-AMP phosphodiesterase 4A (Homo sapiens, UniProt P27815). Format: functional.
Test [22] deals with T5, Sodium-dependent serotonin transporter. This is another data set of the same source.
The target of test [23] is T6, Thromboxane A2 receptor (Homo sapiens, UniProt P21731).
T6 sequence (P21731 whole entry): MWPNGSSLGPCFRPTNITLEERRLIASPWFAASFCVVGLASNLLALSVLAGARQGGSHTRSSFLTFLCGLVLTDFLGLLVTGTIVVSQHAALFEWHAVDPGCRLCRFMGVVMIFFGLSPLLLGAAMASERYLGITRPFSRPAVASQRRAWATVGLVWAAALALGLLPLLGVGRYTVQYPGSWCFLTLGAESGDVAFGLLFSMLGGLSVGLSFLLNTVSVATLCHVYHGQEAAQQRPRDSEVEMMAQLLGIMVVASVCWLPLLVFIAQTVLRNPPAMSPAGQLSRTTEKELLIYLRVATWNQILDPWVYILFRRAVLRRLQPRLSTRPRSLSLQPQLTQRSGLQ
Format: functional, cell-based.

The target in test [24] is T1, Mu-type opioid receptor. The source holds these as a separate data set.
Note: assay procedure not described here.

5-hydroxytryptamine receptor 2B, sequence (P41595 whole entry): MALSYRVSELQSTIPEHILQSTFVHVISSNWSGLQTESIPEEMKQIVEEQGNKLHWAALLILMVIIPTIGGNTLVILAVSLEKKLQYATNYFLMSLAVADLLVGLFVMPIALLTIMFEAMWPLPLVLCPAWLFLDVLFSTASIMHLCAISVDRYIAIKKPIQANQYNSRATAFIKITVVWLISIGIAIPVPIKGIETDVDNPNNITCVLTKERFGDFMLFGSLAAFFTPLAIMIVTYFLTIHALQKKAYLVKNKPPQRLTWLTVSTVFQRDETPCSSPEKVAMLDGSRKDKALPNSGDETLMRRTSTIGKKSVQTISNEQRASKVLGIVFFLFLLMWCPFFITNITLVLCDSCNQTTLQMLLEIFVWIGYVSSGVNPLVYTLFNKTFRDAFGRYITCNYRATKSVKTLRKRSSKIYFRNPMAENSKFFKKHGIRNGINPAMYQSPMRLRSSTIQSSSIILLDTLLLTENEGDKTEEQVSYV
T5 sequence (P31645 whole entry): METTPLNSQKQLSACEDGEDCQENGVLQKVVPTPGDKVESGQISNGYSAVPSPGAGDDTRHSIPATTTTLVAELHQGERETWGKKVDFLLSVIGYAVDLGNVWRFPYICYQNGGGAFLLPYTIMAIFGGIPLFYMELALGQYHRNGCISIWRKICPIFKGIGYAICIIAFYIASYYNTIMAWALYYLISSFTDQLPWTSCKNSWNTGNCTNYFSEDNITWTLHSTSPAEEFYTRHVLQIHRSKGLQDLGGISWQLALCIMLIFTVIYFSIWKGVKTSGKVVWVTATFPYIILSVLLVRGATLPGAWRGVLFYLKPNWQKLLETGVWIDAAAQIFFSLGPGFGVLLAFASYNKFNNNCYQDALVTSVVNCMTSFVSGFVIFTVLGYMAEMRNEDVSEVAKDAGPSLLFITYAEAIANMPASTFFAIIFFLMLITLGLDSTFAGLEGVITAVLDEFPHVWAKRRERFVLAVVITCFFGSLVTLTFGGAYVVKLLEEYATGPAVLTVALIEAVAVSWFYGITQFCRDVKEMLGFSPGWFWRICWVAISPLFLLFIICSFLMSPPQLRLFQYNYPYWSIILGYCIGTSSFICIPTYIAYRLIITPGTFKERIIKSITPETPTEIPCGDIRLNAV
Beta-1 adrenergic receptor, sequence (P08588 whole entry): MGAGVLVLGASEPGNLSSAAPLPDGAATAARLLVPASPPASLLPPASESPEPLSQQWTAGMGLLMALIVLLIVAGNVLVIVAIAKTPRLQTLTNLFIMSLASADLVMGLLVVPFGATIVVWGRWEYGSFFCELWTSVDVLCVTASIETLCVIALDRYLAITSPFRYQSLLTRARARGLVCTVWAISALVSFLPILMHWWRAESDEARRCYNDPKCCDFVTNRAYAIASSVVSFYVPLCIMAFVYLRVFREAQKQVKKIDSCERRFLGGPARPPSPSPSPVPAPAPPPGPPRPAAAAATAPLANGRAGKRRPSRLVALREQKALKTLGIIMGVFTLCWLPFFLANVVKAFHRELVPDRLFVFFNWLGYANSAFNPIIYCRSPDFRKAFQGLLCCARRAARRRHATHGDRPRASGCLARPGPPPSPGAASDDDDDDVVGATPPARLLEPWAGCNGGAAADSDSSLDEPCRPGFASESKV
Histamine H3 receptor, sequence (Q9Y5N1 whole entry): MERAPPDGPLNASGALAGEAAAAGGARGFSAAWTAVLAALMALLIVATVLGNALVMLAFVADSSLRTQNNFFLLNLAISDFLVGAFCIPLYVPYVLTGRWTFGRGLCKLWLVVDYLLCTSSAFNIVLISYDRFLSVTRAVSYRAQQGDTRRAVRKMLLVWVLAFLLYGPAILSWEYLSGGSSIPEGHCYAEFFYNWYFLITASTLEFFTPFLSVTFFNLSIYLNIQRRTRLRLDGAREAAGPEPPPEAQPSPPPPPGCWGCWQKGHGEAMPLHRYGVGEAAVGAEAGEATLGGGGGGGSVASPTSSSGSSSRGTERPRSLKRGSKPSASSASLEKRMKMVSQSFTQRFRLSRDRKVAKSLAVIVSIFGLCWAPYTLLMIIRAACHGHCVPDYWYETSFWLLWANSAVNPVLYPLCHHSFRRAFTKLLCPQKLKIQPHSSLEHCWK
3',5'-cyclic-AMP phosphodiesterase 4A, sequence (P27815 whole entry): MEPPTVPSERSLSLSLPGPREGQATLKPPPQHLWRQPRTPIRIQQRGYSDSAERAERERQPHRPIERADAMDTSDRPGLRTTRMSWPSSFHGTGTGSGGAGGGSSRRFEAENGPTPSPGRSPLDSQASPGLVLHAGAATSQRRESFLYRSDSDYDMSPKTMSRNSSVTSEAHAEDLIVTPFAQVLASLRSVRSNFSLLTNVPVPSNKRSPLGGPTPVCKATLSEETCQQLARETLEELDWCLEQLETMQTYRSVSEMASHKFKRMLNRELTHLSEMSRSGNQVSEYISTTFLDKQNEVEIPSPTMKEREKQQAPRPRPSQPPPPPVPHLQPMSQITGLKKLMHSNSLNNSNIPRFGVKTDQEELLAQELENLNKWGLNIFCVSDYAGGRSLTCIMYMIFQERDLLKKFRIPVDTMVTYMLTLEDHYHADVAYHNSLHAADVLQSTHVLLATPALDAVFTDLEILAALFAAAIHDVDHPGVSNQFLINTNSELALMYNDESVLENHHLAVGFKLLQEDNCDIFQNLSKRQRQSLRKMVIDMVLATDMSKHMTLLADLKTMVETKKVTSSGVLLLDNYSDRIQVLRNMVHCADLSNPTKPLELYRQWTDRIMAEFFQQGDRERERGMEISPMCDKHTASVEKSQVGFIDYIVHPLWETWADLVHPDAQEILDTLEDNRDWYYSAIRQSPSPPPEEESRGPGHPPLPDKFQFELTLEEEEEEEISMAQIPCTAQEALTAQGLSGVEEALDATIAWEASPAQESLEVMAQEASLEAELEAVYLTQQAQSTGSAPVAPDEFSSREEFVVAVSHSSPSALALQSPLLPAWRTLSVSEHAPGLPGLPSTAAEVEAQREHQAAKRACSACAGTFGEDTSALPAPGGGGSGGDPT
Bile salt export pump, sequence (O95342 whole entry): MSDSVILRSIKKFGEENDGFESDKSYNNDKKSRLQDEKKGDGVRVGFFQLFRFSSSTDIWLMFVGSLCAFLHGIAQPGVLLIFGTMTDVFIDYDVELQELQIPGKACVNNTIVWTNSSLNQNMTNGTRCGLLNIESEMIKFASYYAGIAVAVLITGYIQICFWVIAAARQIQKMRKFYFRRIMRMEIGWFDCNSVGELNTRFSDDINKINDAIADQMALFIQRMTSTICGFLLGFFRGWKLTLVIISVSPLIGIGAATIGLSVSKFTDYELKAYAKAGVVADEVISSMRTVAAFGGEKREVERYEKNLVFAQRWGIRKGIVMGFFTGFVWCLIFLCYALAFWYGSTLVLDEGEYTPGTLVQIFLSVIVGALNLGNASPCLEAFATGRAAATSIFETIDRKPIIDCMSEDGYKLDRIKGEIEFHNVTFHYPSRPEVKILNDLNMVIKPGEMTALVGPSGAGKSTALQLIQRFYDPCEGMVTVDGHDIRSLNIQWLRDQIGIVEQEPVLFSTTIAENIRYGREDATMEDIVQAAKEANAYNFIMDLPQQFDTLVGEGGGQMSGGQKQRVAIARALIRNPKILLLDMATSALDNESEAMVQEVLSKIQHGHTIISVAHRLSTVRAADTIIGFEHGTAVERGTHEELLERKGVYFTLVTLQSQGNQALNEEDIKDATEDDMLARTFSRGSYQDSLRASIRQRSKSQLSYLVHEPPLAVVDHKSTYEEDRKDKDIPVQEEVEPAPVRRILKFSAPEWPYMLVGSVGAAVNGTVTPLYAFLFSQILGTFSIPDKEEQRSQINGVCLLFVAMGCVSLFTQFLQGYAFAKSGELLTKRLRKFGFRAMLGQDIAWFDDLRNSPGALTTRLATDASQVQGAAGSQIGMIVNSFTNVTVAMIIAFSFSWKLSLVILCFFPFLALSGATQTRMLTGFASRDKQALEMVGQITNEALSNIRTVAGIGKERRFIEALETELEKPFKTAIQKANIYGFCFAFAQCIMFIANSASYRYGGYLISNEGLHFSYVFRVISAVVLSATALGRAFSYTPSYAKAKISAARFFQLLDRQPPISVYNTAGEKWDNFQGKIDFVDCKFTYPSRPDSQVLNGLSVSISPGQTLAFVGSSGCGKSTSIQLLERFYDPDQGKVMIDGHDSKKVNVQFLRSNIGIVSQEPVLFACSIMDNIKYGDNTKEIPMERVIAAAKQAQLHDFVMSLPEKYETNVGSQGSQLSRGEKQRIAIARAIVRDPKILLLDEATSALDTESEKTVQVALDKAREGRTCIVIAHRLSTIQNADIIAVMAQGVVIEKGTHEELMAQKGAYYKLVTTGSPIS
T1 sequence (P35372 whole entry): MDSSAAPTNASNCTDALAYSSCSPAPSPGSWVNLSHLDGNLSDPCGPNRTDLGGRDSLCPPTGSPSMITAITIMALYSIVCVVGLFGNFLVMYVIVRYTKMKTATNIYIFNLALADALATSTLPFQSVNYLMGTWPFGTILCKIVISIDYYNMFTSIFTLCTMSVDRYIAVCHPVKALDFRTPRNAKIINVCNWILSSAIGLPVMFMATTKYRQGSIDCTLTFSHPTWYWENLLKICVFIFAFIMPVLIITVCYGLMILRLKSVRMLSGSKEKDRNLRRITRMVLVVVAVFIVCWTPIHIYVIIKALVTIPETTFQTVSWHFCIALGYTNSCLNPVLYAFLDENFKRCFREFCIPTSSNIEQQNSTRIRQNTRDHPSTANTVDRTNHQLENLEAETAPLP
Kappa-type opioid receptor, sequence (P41145 whole entry): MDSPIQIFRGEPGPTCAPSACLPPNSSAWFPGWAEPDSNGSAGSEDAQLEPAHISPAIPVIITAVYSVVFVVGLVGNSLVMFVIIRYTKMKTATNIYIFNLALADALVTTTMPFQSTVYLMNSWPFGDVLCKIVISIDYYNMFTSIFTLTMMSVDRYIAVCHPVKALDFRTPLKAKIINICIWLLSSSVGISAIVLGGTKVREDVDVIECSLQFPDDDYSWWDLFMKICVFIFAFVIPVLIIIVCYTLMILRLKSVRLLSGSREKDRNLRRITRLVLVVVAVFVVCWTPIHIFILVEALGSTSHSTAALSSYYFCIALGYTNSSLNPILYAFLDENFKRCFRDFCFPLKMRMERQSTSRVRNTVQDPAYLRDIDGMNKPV

Consider `O=C(O)COC(=O)Cc1ccccc1Nc1c(Cl)cccc1Cl` [ACECLOFENAC], for which the AC50 (usually the concentration at which the activity in the assay is half-maximal) in [1] was greater than 30 µM; in [2], greater than 10 µM; in test [3], greater than 10 µM; in [4], greater than 10 µM; in [5], greater than 10 µM; in test [6], greater than 30 µM. The half-maximal activity concentration (AC50) in test [7] was greater than 10 µM; in test [8], greater than 30 µM; in [9] it was greater than 30 µM; in [10], greater than 10 µM; in [11], greater than 10 µM; in [12] it was 130 µM. Also, the AC50 in test [13] and in [14] was greater than 10 µM in each case.
Regarding `CC(C)NCC(O)COc1ccc(CC(N)=O)cc1` (configuration not stated) [ATENOLOL], the AC50 in test [2], in [3], in [4], in test [6], in test [7] and in [8] was greater than 30 µM throughout. The AC50 in [9] was greater than 30 µM; in [10] it was greater than 30 µM; in test [15] it was 26 µM; in test [11], greater than 30 µM; in test [12], greater than 300 µM; in test [14] it was greater than 30 µM.
For the compound `C[C@H](Nc1ncnc2[nH]cnc12)c1cc2cccc(Cl)c2c(=O)n1-c1ccccc1` [DUVELISIB], the half-maximal activity concentration (AC50) in [1], in test [16], in test [3], in test [17], in test [4] and in test [5] was greater than 30 µM each time. The AC50 is greater than 30 µM in test [7]; greater than 30 µM in [18]; greater than 30 µM in test [8]; greater than 30 µM in test [10]; greater than 30 µM in [19]; 16.8 µM in test [20]. In addition, the concentration at half-maximal activity (AC50) in [12] is 45 µM; in test [21] it was greater than 30 µM; in [22], greater than 30 µM; in test [23] it was 15.1 µM; in test [24], greater than 30 µM; in test [13], greater than 30 µM. In addition, the AC50 in [14] was greater than 30 µM.
Turning to `COC(=O)CCc1ccc(OCC(O)CNC(C)C)cc1` (configuration not stated) [ESMOLOL], the concentration at half-maximal activity (AC50) in test [2], in [3], in test [4], in test [5], in test [7] and in test [8] was greater than 30 µM throughout. Besides, the half-maximal activity concentration (AC50) in test [9] is greater than 30 µM; in test [10], greater than 30 µM; in [15], greater than 30 µM; in test [11] it was greater than 30 µM; in test [12] it was greater than 300 µM; in test [13], 0.856 µM. This compound returned a half-maximal activity concentration (AC50) in [14] greater than 30 µM.
Regarding `N#Cc1ccnc(N2C(=O)CC[C@H]2C(=O)N(c2cncc(F)c2)[C@H](C(=O)NC2CC(F)(F)C2)c2ccccc2Cl)c1` [IVOSIDENIB], the AC50 in test [18] was greater than 30 µM; in test [19], greater than 30 µM; in test [20], greater than 30 µM; in test [12] it was 79 µM; in test [21], greater than 30 µM; in [22], greater than 30 µM. Further, the AC50 in test [23] and in [24] was greater than 30 µM in each case.
Take `O=C1[C@@H]2[C@H]3CC[C@H](C3)[C@@H]2C(=O)N1C[C@@H]1CCCC[C@H]1CN1CCN(c2nsc3ccccc23)CC1` [LURASIDONE]: the half-maximal activity concentration (AC50) is greater than 30 µM in test [1]; greater than 30 µM in test [16]; greater than 30 µM in test [3]; 8.7 µM in test [17]; greater than 30 µM in [5]; greater than 10 µM in test [7]. In addition, the AC50 in [18] is greater than 30 µM; in test [8], greater than 30 µM; in test [19], greater than 30 µM; in [20] it was greater than 30 µM; in test [12], 13 µM; in test [21], 22.5 µM. The AC50 in test [22] was greater than 30 µM; in [23], greater than 30 µM; in test [24], greater than 10 µM; in test [14], greater than 30 µM.
Consider `CCCCCCO[C@@H](C)c1cccc(-c2csc(NC(=O)c3cc(Cl)c(/C=C(\C)C(=O)O)c(Cl)c3)n2)c1OC` [LUSUTROMBOPAG], for which the AC50 in test [18] was 19.3 µM; in test [19], 2.15 µM; in [20] it was greater than 30 µM; in test [12], 4 µM; in test [21], 16.2 µM; in [22] it was greater than 30 µM. Also, the concentration at half-maximal activity (AC50) in test [23] was 14.2 µM; in [24] it was greater than 30 µM.
Take `Cc1cc(C)cc(OCC2CNC(=O)O2)c1` (configuration not stated) [METAXALONE]: the AC50 was greater than 30 µM in [18]; greater than 30 µM in test [19]; greater than 30 µM in test [20]; greater than 300 µM in test [12]; greater than 30 µM in test [21]; greater than 30 µM in [22]. The AC50 in test [23] and in test [24] was greater than 30 µM in each case.
Take `CCCCCCCC/C=C\CCCCCCCC(=O)O` [OLEIC ACID]: the half-maximal activity concentration (AC50) in test [18] was greater than 30 µM; in test [19], 6.68 µM; in [20], greater than 30 µM; in test [12], 260 µM; in test [21], greater than 30 µM; in test [22], greater than 30 µM. Moreover, the AC50 in test [23] was 25.3 µM; in [24], greater than 30 µM.
Regarding `CC1=C(C/C=C(\C)CCC[C@H](C)CCC[C@H](C)CCCC(C)C)C(=O)c2ccccc2C1=O` [PHYTONADIONE], the concentration at half-maximal activity (AC50) in [18] was greater than 30 µM; in test [19], greater than 30 µM; in [20] it was 3.44 µM; in test [12], 160 µM; in test [21] it was 9.52 µM; in [22], greater than 30 µM. Further, the concentration at half-maximal activity (AC50) in [23] and in [24] was greater than 30 µM each time.
For `Cc1ccc(C(C)C)c(O)c1` [THYMOL], the concentration at half-maximal activity (AC50) in [18] was greater than 30 µM; in test [19], greater than 30 µM; in test [20], greater than 30 µM; in [12], greater than 300 µM; in test [21], greater than 30 µM; in test [22], greater than 30 µM. For the same compound, the AC50 in test [23] and in test [24] was greater than 30 µM each time.
